One experiment deals with T1, VvSERAT2;1 (Vitis vinifera, UniProt F6HCV5).
T1 construct: gene VIT_00s0194g00120; N-terminal His tag (pET28a), E. coli; lacks predicted transit peptide (57 residues predicted); naturally lacks canonical C-terminal tail; free SERAT without OASTL
T1 sequence (F6HCV5 58-306): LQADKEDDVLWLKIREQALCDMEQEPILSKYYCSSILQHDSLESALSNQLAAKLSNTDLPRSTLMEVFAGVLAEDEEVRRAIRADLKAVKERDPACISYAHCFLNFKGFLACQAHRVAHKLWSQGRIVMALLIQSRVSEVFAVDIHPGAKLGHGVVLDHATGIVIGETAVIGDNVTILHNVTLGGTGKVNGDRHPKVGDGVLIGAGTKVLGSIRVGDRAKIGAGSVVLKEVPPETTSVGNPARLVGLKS
The experiment in a line: SERAT activity assay, titration with cysteine up to […]. It is filed as biochemical. The note with it: read-out: Cys Inhibition (IC50 mM).

The target of the next experiment is T2, AtOASTL-B (Arabidopsis thaliana, UniProt P47999).
T2 construct: gene OASB; recombinant, expressed in E. coli (Wirtz et al. 2004)
T2 sequence (P47999 61-392): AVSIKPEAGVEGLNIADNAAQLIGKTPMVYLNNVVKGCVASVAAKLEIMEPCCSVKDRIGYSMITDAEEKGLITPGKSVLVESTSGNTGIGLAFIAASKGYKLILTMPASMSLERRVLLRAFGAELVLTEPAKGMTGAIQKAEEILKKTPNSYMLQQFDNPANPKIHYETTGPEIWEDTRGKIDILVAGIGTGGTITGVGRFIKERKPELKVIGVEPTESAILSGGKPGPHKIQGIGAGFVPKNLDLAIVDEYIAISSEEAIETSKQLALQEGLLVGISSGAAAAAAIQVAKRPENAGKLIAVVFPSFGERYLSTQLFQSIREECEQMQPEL
The experiment in a line: OASTL activity assay (Gaitonde); […]-1 pmol enzyme, turnover only. It is filed as biochemical. The note with it: co-substrate sulfide; control without SERAT.

What is called IC50 is the concentration at which inhibition is half-maximal. Regarding `N[C@@H](CS)C(=O)O` [L-Cys], the half-maximal inhibitory concentration (IC50) on VvSERAT2;1 came out at 1.9 ± 0.56 mM. `CC(=O)OC[C@H](N)C(=O)O` [O-acetylserine]: the OASTL activity result on AtOASTL-B is “Enzymatic activity of OASTL was determined according to Gaitonde”.

The values are drawn from PMC4330696, “Characterization of the serine acetyltransferase gene family of Vitis vinifera uncovers differences in regulation of OAS synthesis in woody plants” (Frontiers in Plant Science, 2015).
